Experiment [1] has as its system S. aureus (SA) agr-I. To be noted: b-lactamase, cited from earlier work.
The subject of experiment [2] is S. aureus (SA) agr-II. To be noted: b-lactamase, cited from earlier work.
Experiment [3] relates to S. aureus (SA) agr-IV. To be noted: b-lactamase; ref (4); cited from earlier work.
In experiment [4] the test system is S. aureus (SA) agr-II. Details: method as in ref (5) (a number printed in a supplementary file, which may have a reference list of its own: not looked up in the article's list). To be noted: hemolysis; ref (5); cited from earlier work.
The subject of experiment [5] is S. aureus (SA) agr-III. Details: method as in ref (5) (a number printed in a supplementary file, which may have a reference list of its own: not looked up in the article's list). To be noted: hemolysis; ref (5); cited from earlier work.
The test system of experiment [6] is S. epidermidis (SE) agr-I. To be noted: fluorescence, ref (11), cited from earlier work.
Experiment [7] concerns S. epidermidis (SE) agr-I. Also noted: method as in ref (9) (a number printed in a supplementary file, which may have a reference list of its own: not looked up in the article's list). To be noted: HPLC d-toxin, ref (9); cited from earlier work.
The target of experiment [8] is SA AgrC-I (Staphylococcus aureus, UniProt O07911). As to the kind of experiment: β-Lactamase assay, reporter strain RN10829 (P2-agrA:P3-blaZ) with pagrC-I. The experiment is classed as cell-based. The method, boiled down: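 S. aureus RN10829 (P2-agrA:P3-blaZ) expressing AgrC-I from plasmid, grown in TSB to OD600 0.35–0.40, treated with peptides (10 μM–10 pM) plus cognate AIP (100 nM) for 1 h at 37°C, 200 rpm.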

Experiment [9] addresses SA AgrC-III (Staphylococcus aureus, UniProt O33590). Kind of experiment: β-Lactamase assay, reporter strain RN10829 (P2-agrA:P3-blaZ) with pagrC-III. The experiment is classed as cell-based. The method, boiled down:
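S. aureus RN10829 P2-agrA:P3-blaZ reporter carrying a plasmid for the matching wild-type AgrC, grown in TSB to OD600 0.35–0.40. Cells met peptides (10 μM–10 pM) plus cognate AIP at 100 nM for 1 h at 37°C, then nitrocefin (33.3 μg/mL) turnover was read at OD486 for 10 min; IC50 from linear rates.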

Experiment [10] has as its target S. aureus agr-I spa-GFP reporter strain (JE2, MRSA) (Staphylococcus aureus, UniProt A0A0H2XKA3). Kind of experiment: Fluorescence reporter assay for agr deactivation of virulent S. aureus (JE2 spa-GFP). The experiment is classed as cell-based. To be noted: GFP expression relative to non-induced cultures. As for the experimental part: A fluorescent reporter strain of S. aureus JE2 containing a plasmid with a spa::GFP promoter was constructed by transforming the strain with pALC1741 ([52]). Cultures of the reporter strain were grown from single colonies in TSB medium containing chloramphenicol (CAM, 10 μg/mL) and S. aureus AIP-I (1) (concentrations = 500 nM, 100 nM, or 50 nM) to OD600 = 0.2–0.3 (early exponential phase) at 37°C. Assays were performed in sterile black 96-well plates with clear bottoms. Peptide solutions (15 μL) in 1:5 serial dilutions from DMSO stock solutions (1 mM) in TSB medium were added to the 96-well plate in technical triplicate followed by the induced bacterial cultures (135 μL). Control wells were uninduced cultures containing no S. aureus AIP-I (1). The 96-well plates were incubated in a plate reader at 37°C shaking at 283 rpm and fluorescence (GFP: excitation 479 nm, emission 520 nm, automatic gain), and OD600 values were continuously measured. […] Relative GFP expression was plotted to obtain IC50 values by non-linear regression with variable slope using GraphPad Prism 10.4 software. All assays were performed in biological triplicate.
On the technique in general: In a reporter assay the amount or activity of a reporter protein is the signal.

The test system of experiment [11] is S. aureus (SA) agr-I. Details: method as in ref (5) (a number printed in a supplementary file, which may have a reference list of its own: not looked up in the article's list). To be noted: hemolysis; ref (5); cited from earlier work.

Several values for one entry are separate records, joined by “and”; a condition that tells them apart may be missing. Equal values may be shown once. Read-outs that look alike come from different tables or passages of the source. Positions of bridges follow the written chain, without caps; N, C: chain ends. Residues, ends and D or L forms follow the SMILES beside them.

Broadly, the EC50 is the concentration needed to bring the measured effect to its halfway point. Broadly, the IC50 is the midpoint of a concentration-inhibition curve.

Sequence of S. aureus agr-I spa-GFP reporter strain (JE2, MRSA) (A0A0H2XKA3 entry or part of it): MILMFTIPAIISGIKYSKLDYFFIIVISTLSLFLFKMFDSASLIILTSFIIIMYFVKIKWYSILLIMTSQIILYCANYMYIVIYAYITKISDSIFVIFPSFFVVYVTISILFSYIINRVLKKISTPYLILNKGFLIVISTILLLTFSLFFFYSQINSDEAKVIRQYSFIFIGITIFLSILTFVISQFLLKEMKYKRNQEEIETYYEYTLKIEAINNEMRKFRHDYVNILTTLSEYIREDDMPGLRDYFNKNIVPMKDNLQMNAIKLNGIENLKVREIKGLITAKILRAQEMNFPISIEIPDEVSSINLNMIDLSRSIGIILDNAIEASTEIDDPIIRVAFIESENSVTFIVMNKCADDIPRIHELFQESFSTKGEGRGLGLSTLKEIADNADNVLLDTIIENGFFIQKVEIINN
Sequence of SA AgrC-I (O07911 entry or part of it): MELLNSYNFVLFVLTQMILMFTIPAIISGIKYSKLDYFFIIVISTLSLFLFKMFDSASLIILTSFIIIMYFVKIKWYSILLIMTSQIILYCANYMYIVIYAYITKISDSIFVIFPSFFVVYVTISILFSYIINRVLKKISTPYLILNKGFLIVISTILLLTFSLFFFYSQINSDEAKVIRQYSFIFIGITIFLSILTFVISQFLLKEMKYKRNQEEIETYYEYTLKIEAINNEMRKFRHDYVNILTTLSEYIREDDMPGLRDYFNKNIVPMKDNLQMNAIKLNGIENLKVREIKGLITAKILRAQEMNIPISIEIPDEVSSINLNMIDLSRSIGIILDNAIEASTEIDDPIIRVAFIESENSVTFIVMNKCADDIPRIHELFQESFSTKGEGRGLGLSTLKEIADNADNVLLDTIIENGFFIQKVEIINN
Sequence of SA AgrC-III (O33590 entry or part of it): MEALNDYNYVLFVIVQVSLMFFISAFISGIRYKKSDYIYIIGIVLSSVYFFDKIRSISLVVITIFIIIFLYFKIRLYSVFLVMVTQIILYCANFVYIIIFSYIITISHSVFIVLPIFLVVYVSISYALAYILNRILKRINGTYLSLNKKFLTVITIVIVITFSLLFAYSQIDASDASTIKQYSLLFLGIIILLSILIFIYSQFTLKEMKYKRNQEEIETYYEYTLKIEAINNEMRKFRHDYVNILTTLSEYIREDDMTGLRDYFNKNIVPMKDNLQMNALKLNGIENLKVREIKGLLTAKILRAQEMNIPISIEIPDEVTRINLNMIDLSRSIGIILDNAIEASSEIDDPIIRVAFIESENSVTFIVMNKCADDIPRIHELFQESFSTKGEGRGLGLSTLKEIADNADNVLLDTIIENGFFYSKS

Turning to `CC[C@H](C)[C@@H]1NC(=O)[C@H](Cc2ccccc2)NC(=O)[C@H](CC(=O)O)NC(=O)[C@@H](NC(=O)[C@@H](NC(=O)[C@H](CO)NC(=O)[C@@H](N)Cc2ccc(O)cc2)[C@@H](C)O)CSC(=O)[C@H](CCSC)NC1=O` [compound 1, S. aureus AIP-I] (H-YSTCDFIM; thioester 4-C), the EC50 was 40 nM and 23 nM in [1] (ref (3)); 28 nM in experiment [1] (ref (4)); 11 nM in experiment [1] (ref (6)); 3.21 nM in [1] (ref (7)); 26000 nM in experiment [3]. In addition, the IC50 in experiment [2] (ref (2)) is 3.4 ± 1.2 nM; in [2] (ref (4)) it was 25 nM; in experiment [4], 3.34 nM; in experiment [5] it was 6.12 nM. Besides, the “inhibition at 1000 nM, SE agr-I” value in experiment [6] (at 1000 nM) and in experiment [7] was “no inhibition” in each case.
Regarding `NCCCC[C@H](N)C(=O)N[C@@H](Cc1ccc(O)cc1)C(=O)N[C@@H](Cc1ccc(O)cc1)C(=O)N1CCC[C@H]1C(=O)N[C@H]1CSC(=O)[C@H](Cc2ccccc2)NC(=O)[C@H](Cc2ccc(O)cc2)NC(=O)CNC(=O)[C@H](Cc2c[nH]c3ccccc23)NC1=O` [compound 33, S. simulans AIP-II] (H-KYYPCWGYF; thioester 5-C), the IC50 in experiment [8] turned out to be 1.9 ± 0.3 nM; in experiment [9], 198 ± 33 nM; in [10] (induced with 1 [50 nM]), 3.3 nM; in [10] (induced with 1 [100 nM]), 5.2 nM; in [10] (induced with 1 [500 nM]), 18.4 nM.
As for `NCCCC[C@H](N)C(=O)N[C@@H](Cc1ccc(O)cc1)C(=O)N[C@@H](CC(N)=O)C(=O)N1CCC[C@H]1C(=O)N[C@H]1CSC(=O)[C@H](Cc2ccccc2)NC(=O)[C@H](Cc2ccc(O)cc2)NC(=O)CNC(=O)[C@H](Cc2c[nH]c3ccccc23)NC1=O` [compound 34, S. simulans AIP-III] (H-KYNPCWGYF; thioester 5-C), the IC50 in [8] was found to be 1.6 ± 0.1 nM; in experiment [9] it was 103 ± 5 nM.
On to “S. aureus AIP-III D4A [compound 57, reference compound]”, for which the IC50 was 0.16 ± 0.01 nM in experiment [1] (ref (8)), 0.082 nM in [11], 0.06 nM in experiment [4] and 0.16 nM in [5]. Also, the “inhibition at 10 µM, SE agr-I” value in [6] (at 10 µM) is ~ 25%.
